Source: patent US9993488B2, “Dry powder formulations for inhalation” (OtiTopic Inc., priority 2014, dated 2018)
≈ marks a conversion by molar mass, not a printed value. Read-outs that look alike come from different tables or passages of the source.

Experiments:
[1] = Gravimetric emitted dose through DPI devices (TwinCaps, RS01) with NGI; assay type: physicochemical; conditions: 40 L/min, fill weight 60.00 mg
Experimental: The aerodynamic particle size distributions (APSDs) of the ASA powders were determined by evaluating emitted doses gravimetrically through two DPI devices, the TwinCaps and the RS01, using a Next Generation Impactor (NGI). Flow rates of approximately 40 and 100 L/min provided the 4 kPa pressure drop across the TwinCaps and RS01 devices, respectively, as stipulated by USP <601>, Inhalation and Nasal Drug Products: Aerosol, Sprays, and Powders—Performance Quality Tests.
The TwinCaps DPI was tested (2 actuations) using various loaded doses. Testing was performed to determine the approximate emitted dose from the device based on weight. Each test was performed using a freshly prepared NGI.
The Plastiape RS01 monodose DPI inhaler was also tested using various loaded doses in Size 3 HPMC capsules to determine approximate emitted dose based on the weight.

[2] = system: vascular events; conditions: cited from earlier work
[3] = system: major gastrointestinal and extracranial bleeds; conditions: oral aspirin; cited from earlier work
[4] = system: platelet aggregation, platelet thromboxane production, urinary 2,3-dinor-TXB2 excretion; conditions: cited from earlier work
[5] = system: respiratory system; experiment: Irritation / tolerability on inhalation; assay type: in vivo
From the text: In addition, particles described herein can be mixed and/or coated with various pharmaceutically acceptable excipients. Excipients can be included in order to improve aerodynamic performance of the active drug, to improve bioavailability, increase stability, to modulate pH, to provide sustained release properties, to provide taste-masking of an irritating drug and/or to improve pharmacokinetic performance. In one embodiment, a dry powder comprises an amount of excipient effective to provide taste-masking of an irritating drug. In terms of suitable formulations for inhalation, not only is particle size important in order to reach a desired region of the respiratory system, but the formulation must be acceptable to patients. […] Consequently, it became necessary to find a suitable excipient in order to mask this property of aspirin.
Aspirin alone may be too irritating and evoke a choking response (e.g., coughing, bronchospasms) when inhaled. […] For example, symptoms of headache and nasal congestion may be alleviated within about 10 seconds, about 15 seconds, about 20 seconds, about 30 seconds, or within about 45 seconds.

[6] = Solubility of aspirin in solvents; assay type: physicochemical; conditions: organic solvent or mixture
From the text: The solubility of aspirin in a number of solvents was first evaluated prior to initiating controlled crystallization by addition of a suitable anti-solvent.

[7] = cited from earlier work
[8] = Solubility of aspirin in anti-solvents / dispersion media; assay type: physicochemical
Experimental: After considering a number of factors in the end it was determined that only n-heptane and toluene fulfilled all the requirements, and therefore these were selected for further evaluation. Suspensions of aspirin at 5% w/w were prepared with the various anti-solvents, by charging the required amount of anti-solvent, charging the required amount of aspirin, and then stirring until a homogeneous suspension was obtained. The suspensions were qualitatively evaluated at room temperature and then filtered using a 0.45 μm membrane, which was then placed in an oven and dried at 60° C. until the solvent had completely evaporated. A quantitative analysis was performed on the residue that remained in the membrane by weighing the membrane before and after the test.
5% w/w DSPC was used as it was found from previous work to mitigate irritation when inhaled. Additionally, soy lecithin was also used in the concentration of 0.1% w/w. As aspirin is insoluble in n-hexane, it was selected as a dispersion media for the micronized particles. Also, it has boiling point of 70° C. which is much below the melting point of aspirin (˜135° C.) and therefore, an inlet temperature of 85° C. should remove solvent without affecting the aspirin particles.

[9] = Pharmacokinetics of orally administered aspirin (literature); conditions: extrapolated from linear pharmacokinetics over 30-400 mg
[10] = after oral administration of ASA
[11] = 5% w/w suspension, room temperature, 0.45 μm filtration
[12] = following administration of ASA

Compound: OC[C@H]1O[C@@H](O[C@H]2[C@H](O)[C@@H](O)C(O)O[C@@H]2CO)[C@H](O)[C@@H](O)[C@H]1O (stereo partly shown) [Lactose, lactose]
- % Emitted (based on fill weight) [1]: 94.5%
- Total Emitted Dose [1]: 56.73 mg

Compound: CC(=O)Oc1ccccc1C(=O)O [aspirin, acetylsalicylic acid]
- vascular events prevented ([2]; Dutch TIA Study, any dose above 30 mg daily): 13%
- risk of stroke or death ([2]; SALT, 75 mg/day, patients with cerebrovascular ischemic events): significantly reduces
- increase of major gastrointestinal and extracranial bleeds [3]: over 50%
- inhibition of indices of platelet activation ([4]; 40 mg ASA versus 100 mg, healthy human subjects): significantly less effective
- inhibition of platelet aggregation, thromboxane production, urinary 2,3-dinor-TXB2 excretion ([4]; plain versus enteric-coated 100 mg ASA): equally effective
- irritation / tolerability when inhaled [5]: quite irritating
- solubility ([6]; DMF, 23 °C): 500 mg/mL (≈ 2780 mM)
- solubility ([6]; PEG-200, 23 °C): 77 mg/mL (≈ 427 mM)
- solubility ([6]; THF, 3 °C): 250 mg/mL (≈ 1390 mM)
- solubility ([6]; THF, 23 °C): 500 mg/mL (≈ 2780 mM)
- solubility ([6]; acetone, 3 °C): 143 mg/mL (≈ 794 mM)
- solubility ([6]; acetone, 23 °C): 200 mg/mL (≈ 1110 mM)
- solubility ([6]; ethanol, EtOH, 3 °C): 63 mg/mL (≈ 350 mM)
- solubility ([6]; ethanol, EtOH, 23 °C): 125 mg/mL (≈ 694 mM)
- solubility ([6]; methanol, MeOH, 3 °C): 133 mg/mL (≈ 738 mM)
- solubility ([6]; methanol, MeOH, 23 °C): 167 mg/mL (≈ 927 mM)
- elimination half-life [7, 10]: 0.25 to 0.333 h
- time to peak plasma levels [7, 10]: about 20 minutes
- fraction of oral dose bioavailable ([7]; oral, first pass effect): one to two-thirds
- fraction of oral dosage lost or inactivated by first pass effect ([7]; oral, gut and liver): approximately ⅔
- Behavior towards n-heptane [8, 11]: phobic behavior
- Solubility in toluene [8, 11]: partially soluble
- Solubility in n-hexane ([8]; n-hexane): insoluble

Compound: O=C(O)c1ccccc1O [salicylic acid]
- elimination half-life [7, 12]: 2 to 3 h
- period of increasing plasma levels [7, 12]: about 45 minutes
- expected peak circulating plasma level [9]: ~10 µg/mL
